Results on six molecules are retold here after patent publication US5204351A, “6-fluoro-3,5-dihydroxy carboxylic acids and derivatives thereof” (Hoechst Aktiengesellschaft, priority 1988, dated 1993).

The structures appear in SMILES notation.

Assay [1] deals with T1, HMG-CoA reductase (Rattus norvegicus, UniProt P51639).
T1 construct: solubilized enzyme preparations from liver microsomes from rats; from tissue; host or cells: liver microsomes of cholestyramine-induced rats
T1 sequence (P51639 1-887): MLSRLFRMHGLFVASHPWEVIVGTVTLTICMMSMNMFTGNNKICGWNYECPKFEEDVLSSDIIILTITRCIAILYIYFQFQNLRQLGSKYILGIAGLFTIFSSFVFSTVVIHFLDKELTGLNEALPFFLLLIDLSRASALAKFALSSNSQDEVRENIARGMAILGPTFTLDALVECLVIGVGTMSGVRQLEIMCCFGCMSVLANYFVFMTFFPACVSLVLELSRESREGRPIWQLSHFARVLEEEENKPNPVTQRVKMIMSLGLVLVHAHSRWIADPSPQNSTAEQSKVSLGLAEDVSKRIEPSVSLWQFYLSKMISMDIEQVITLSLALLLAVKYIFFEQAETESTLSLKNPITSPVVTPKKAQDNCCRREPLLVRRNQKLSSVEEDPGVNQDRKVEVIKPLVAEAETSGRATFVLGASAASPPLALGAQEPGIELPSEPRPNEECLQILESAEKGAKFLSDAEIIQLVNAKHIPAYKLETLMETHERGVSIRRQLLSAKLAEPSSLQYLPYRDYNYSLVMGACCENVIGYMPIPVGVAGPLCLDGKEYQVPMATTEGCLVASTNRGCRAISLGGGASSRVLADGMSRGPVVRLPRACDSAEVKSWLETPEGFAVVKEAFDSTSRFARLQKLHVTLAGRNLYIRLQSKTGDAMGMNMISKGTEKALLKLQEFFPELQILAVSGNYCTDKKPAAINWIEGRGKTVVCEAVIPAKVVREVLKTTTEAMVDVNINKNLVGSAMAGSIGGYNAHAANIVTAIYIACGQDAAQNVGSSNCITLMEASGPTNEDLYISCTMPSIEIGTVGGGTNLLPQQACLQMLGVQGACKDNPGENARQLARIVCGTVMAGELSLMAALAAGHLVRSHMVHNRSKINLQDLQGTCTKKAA
Nature of the assay: HMG CoA reductase activity in enzyme preparations (solubilized enzyme preparations from liver microsomes of cholestyramine-induced rats, 14C-HMG-CoA substrate). To be noted: solubilized rat liver microsomal enzyme; mean of 3 parallel samples; Table 1; read-out: IC50 for inhibition of HMG-CoA reductase. The class given is biochemical. Here is the method: 1. HMG CoA reductase activity in enzyme preparations
The HMG-CoA reductase activity was measured on solubilized enzyme preparations from liver microsomes from rats which, after a changeover in the day/night rhythm, had been induced with cholestyramine (®Cuemid).
The substrate used was (S,R) ^14 C-HMG-CoA, and the concentration of NADPH was maintained constant during the incubation by a regenerating system. ^14 C-Mevalonate was separated from the substrate and other products (e.g. ^14 C-HMG) by column elution, with the elution profile of each individual sample being determined.
Permanent inclusion of ^3 H-mevalonate was dispensed with because the determination was for relative data on the inhibitory effect. In each test series the enzyme-free control, the enzyme-containing normal mixture (=100%) and those with added product, final concentration 10^-5 to 10^-9 M, were treated together. Each individual value was formed as the mean of 3 parallel samples. The significance of the differences between means for product-free and product-containing samples was assessed using the t test.
The method described above was used to measure, for example, the following figures for the inhibition of HMG-CoA reductase by the compounds according to the invention [IC50 /mol/liter means the molar concentration of the compound per liter necessary for 50% inhibition]: […]

For assay [2], the system named is cholesterol biosynthesis (in HEP-G2 cells). Nature of the assay: Suppression or inhibition of HMG-CoA reductase in cell cultures of HEP-G2 cells: inhibition of cholesterol biosynthesis from 14C-acetate. Conditions: Homo sapiens, HepG2, monolayers, e.g. 1 hour preincubation, 3 hours with sodium 14C-acetate, Table 2. The format is cell-based. The method, then:
2. Suppression or inhibition of HMG-CoA reductase in cell cultures of HEP-G2 cells
Monolayers of HEP-G2 cells in the lipoprotein-free nutrient medium were preincubated with appropriate concentrations of the test substances for a defined time (for example 1 hour) and, after addition of the labeled precursor, for example sodium ^14 C-acetate, the incubation was continued (for example for 3 hours). An internal standard (^3 H-cholesterol) was added and then a portion of the cells underwent alkaline hydrolysis. The lipids from the hydrolyzed cells were extracted with chloroform/methanol. After addition of carrier cholesterol to this lipid mixture it was subjected to preparative thin-layer chromatography, the cholesterol band was visualized with iodine vapor and then isolated, and the amount of ^14 C-cholesterol formed from the ^14 C-precursor was determined by scintigraphy. Cell protein was determined in an aliquot of the cells so that it is possible to calculate the amount of ^14 C-cholesterol formed per unit time and per mg of cell protein. The inhibitory effect of the particular test product on the cholesterol biosynthesis by HEP-G2 cell cultures was obtained by comparing this figure with the amount of ^14 C-cholesterol formed per mg of cell protein and unit time in a culture treated in the same way but free of test substance.
Examination of substances for inhibition of cholesterol biosynthesis
in confluent cell cultures (monolayers) of HEP-G2 cells
The method described above was used to measure, for example, the following figures for the inhibition of cholesterol biosynthesis (in HEP-G2 cells) by the compounds according to the invention (the IC50 /mol/liter is that concentration of the compound which brings about 50% inhibition of cholesterol biosynthesis) (Tab. 2).

Assay [3] deals with cholesterol. Conditions: rats; cited from earlier work.

As to `CC(C)c1nc(-c2ccccc2)cc(-c2ccc(F)cc2)c1/C=C(\F)[C@@H]1C[C@@H](O)CC(=O)O1` [10 b], the IC50 is 9 nM in assay [1] and 4.6 nM in assay [2].
The matching figures for `CC(C)c1nc(-c2ccc(F)cc2)c(/C=C(\F)[C@@H]2C[C@@H](O)CC(=O)O2)c(C(C)C)n1` [10 g]: 1.8 nM and 2.5 nM.
`CC(C)c1nc(-c2ccc(F)cc2)nc(-c2ccc(F)cc2)c1C=C(F)C(O)CC(O)CC(=O)O` (stereo not drawn) [11 a] had a half-maximal inhibitory concentration (IC50) in assay [2] of 18 nM.
Consider `CC(O)(CC(=O)O)CC(=O)O` [3-Hydroxy-3-methylglutaric acid], for which, in assay [3], the cholesterol-lowering action entry is reported as “significant cholesterol-lowering action”.
Take `CC(C)c1nc(-c2ccc(F)cc2)nc(-c2ccc(F)cc2)c1/C=C(\F)[C@@H]1C[C@@H](O)CC(=O)O1` [10 a]: the results for the IC50 in assay [1] and in assay [2] were 2.9 nM and 19 nM, respectively.
Molecule `CC(C)c1nc(-c2ccccc2)cc(-c2ccc(F)cc2)c1/C=C(\F)[C@@H](O)C[C@@H](O)CC(=O)O` [11 b] registered an IC50 in assay [2] of 20 nM.
